Laboratory results from patent US20230393140A1, “BINDING ASSAYS INVOLVING A PLURALITY OF SYNTHETIC COMPOUNDS, TARGETS, AND COUNTER TARGETS” (SRI International, priority 2020, published 2023).
Numbered stars: 1 amine (or outer) side, 2 acyl side, 3 side chain; on linkers, the order of the positions; unused ones are H or OH. Square brackets hold non-standard residues; d marks the D form. Peptide text beside a SMILES is read from it. * marks the point of attachment. 5FAM = O=C1OC2(c3ccc(O)cc3Oc3cc(O)ccc32)c2ccc(C(=O)*)cc21; NHCH2C6H4(4-CH2CONH2) = NC(=O)Cc1ccc(CN*)cc1; X1 = O=C(Cc1ccc(CN[*:1])cc1)[*:2]

Biological target: TNFα (Homo sapiens, UniProt P01375)
Sequence (P01375 77-233 limits assumed): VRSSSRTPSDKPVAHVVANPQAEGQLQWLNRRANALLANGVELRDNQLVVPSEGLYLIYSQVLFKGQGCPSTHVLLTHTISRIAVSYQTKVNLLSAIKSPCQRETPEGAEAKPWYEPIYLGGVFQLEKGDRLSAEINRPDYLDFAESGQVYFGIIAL
Assay: MST binding affinity of resynthesized NNP hits to TNFα
Set-up: purchased R&D Systems, Inc. 210-TA/CF
Settings: read-out: KD (nM) [95% conf. int], NNP2 library hit, target TNFα, one-site binding model
Outline: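 Microscale thermophoresis at room temperature, triplicate, 15, 30 and 45 min incubations; targets labeled with RED-NHS 647 dye. Buffers (all 20 mM HEPES pH 7.4 unless noted): IL-6 150 mM KCl, 10 mM MgCl2, 0.1% Pluronic F-127; IL-6R 150 mM NaCl, 10 mM MgCl2, 0.05% Tween-20; TNFα 10 mM HEPES, 150 mM NaCl, 10 mM MgCl2, 0.05% Polysorbate-20; ASGPR adds 2 mM CaCl2, 0.05% Pluronic F-127, 1 mM DTT.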

Compound | Kd [nM]
CC(C)C[C@H](NC(=O)[C@@H](CCCNC(=N)N)NC(=O)CNC(=O)Cc1ccc(CNC(=O)[C@H](CC(C)C)NC(=O)[C@H](NC(=O)[C@@H](CO)NC(=O)c2ccc3c(c2)C(=O)OC32c3ccc(O)cc3Oc3cc(O)ccc32)C(C)C)cc1)C(=O)NCc1ccc(CC(=O)N[C@H](Cc2ccccc2)C(=O)N[C@H](CCC(=O)O)C(=O)N[C@H](C(=O)NCc2ccc(CC(=O)N[C@H](Cc3ccccc3)C(=O)N[C@H](CCCCN)C(=O)N[C@@H](CC(C)C)C(=O)NCc3ccc(CC(=O)N[C@H](Cc4ccc(O)cc4)C(=O)N[C@H](CCCCN)C(=O)N[C@@H](C)C(=O)NCc4ccc(CC(=O)N[C@H](CCC(=O)O)C(=O)N[C@H](Cc5c[nH]c6ccccc56)C(=O)N[C@@H](C)C(=O)NCc5ccc(CC(=O)N[C@H](C)C(=O)N[C@H](CCCNC(=N)N)C(=O)N[C@@H](CC(C)C)C(=O)NCc6ccc(CC(=O)N[C@H](CCC(=O)O)C(=O)N[C@H](Cc7ccc(O)cc7)C(=O)N[C@@H](Cc7ccccc7)C(=O)NCc7ccc(CC(=O)N[C@H](Cc8ccc(O)cc8)C(=O)N[C@H](CCCNC(=N)N)C(=O)N[C@@H](Cc8ccccc8)C(=O)NCc8ccc(CC(N)=O)cc8)cc7)cc6)cc5)cc4)cc3)cc2)C(C)C)cc1 [TNF-39-13] (5FAM-[dS][dV]L[X1]G[dR]L[X1][dF][dE]V[X1][dF][dK]L[X1][dY][dK]A[X1][dE][dW]A[X1][dA][dR]L[X1][dE][dY]F[X1][dY][dR]F-{NHCH2C6H4(4-CH2CONH2)}) | 40
CC(C)C[C@H](NC(=O)[C@@H](CCCNC(=N)N)NC(=O)CNC(=O)Cc1ccc(CNC(=O)[C@H](CC(C)C)NC(=O)[C@H](NC(=O)[C@@H](CCCCN)NC(=O)c2ccc3c(c2)C(=O)OC32c3ccc(O)cc3Oc3cc(O)ccc32)C(C)C)cc1)C(=O)NCc1ccc(CC(=O)N[C@H](CCCNC(=N)N)C(=O)N[C@@H](C(=O)N[C@@H](CC(C)C)C(=O)NCc2ccc(CC(=O)N[C@H](Cc3c[nH]c4ccccc34)C(=O)N[C@H](CCCNC(=N)N)C(=O)N[C@@H](CC(C)C)C(=O)NCc3ccc(CC(=O)N[C@H](Cc4c[nH]c5ccccc45)C(=O)N[C@H](CCCNC(=N)N)C(=O)N[C@H](C(=O)NCc4ccc(CC(=O)N[C@H](CO)C(=O)N[C@H](CO)C(=O)N[C@@H](Cc5ccccc5)C(=O)NCc5ccc(CC(=O)N[C@H](C)C(=O)N[C@H](CO)C(=O)N[C@@H](Cc6ccccc6)C(=O)NCc6ccc(CC(=O)N[C@H](Cc7c[nH]c8ccccc78)C(=O)N[C@H](CCCCN)C(=O)N[C@@H](CC(C)C)C(=O)NCc7ccc(CC(=O)N[C@H](Cc8ccc(O)cc8)C(=O)N[C@H](CCCNC(=N)N)C(=O)N[C@@H](Cc8ccccc8)C(=O)NCc8ccc(CC(N)=O)cc8)cc7)cc6)cc5)cc4)C(C)C)cc3)cc2)C(C)C)cc1 [TNF-39-9] (5FAM-[dK][dV]L[X1]G[dR]L[X1][dR][dV]L[X1][dW][dR]L[X1][dW][dR]V[X1][dS][dS]F[X1][dA][dS]F[X1][dW][dK]L[X1][dY][dR]F-{NHCH2C6H4(4-CH2CONH2)}) | 150
CC(C)C[C@H](NC(=O)[C@@H](CCCCN)NC(=O)[C@@H](Cc1ccccc1)NC(=O)Cc1ccc(CNC(=O)[C@H](CC(C)C)NC(=O)[C@@H](CCCCN)NC(=O)[C@@H](CC(C)C)NC(=O)Cc2ccc(CNC(=O)[C@H](Cc3ccccc3)NC(=O)[C@@H](C)NC(=O)[C@@H](C)NC(=O)Cc3ccc(CNC(=O)[C@H](CC(C)C)NC(=O)[C@H](NC(=O)[C@@H](CCCCN)NC(=O)c4ccc5c(c4)C(=O)OC54c5ccc(O)cc5Oc5cc(O)ccc54)C(C)C)cc3)cc2)cc1)C(=O)NCc1ccc(CC(=O)N[C@H](Cc2c[nH]c3ccccc23)C(=O)N[C@H](CCCNC(=N)N)C(=O)N[C@H](C(=O)NCc2ccc(CC(=O)N[C@H](CO)C(=O)N[C@H](CO)C(=O)N[C@@H](Cc3ccccc3)C(=O)NCc3ccc(CC(=O)N[C@H](Cc4c[nH]cn4)C(=O)N[C@H](CCC(=O)O)C(=O)N[C@@H](CC(C)C)C(=O)NCc4ccc(CC(=O)N[C@H](Cc5ccccc5)C(=O)N[C@H](CCCCN)C(=O)N[C@@H](Cc5ccccc5)C(=O)NCc5ccc(CC(=O)N[C@@H](C(=O)N[C@H](CCC(=O)O)C(=O)N[C@@H](CC(C)C)C(=O)NCc6ccc(CC(N)=O)cc6)[C@H](C)O)cc5)cc4)cc3)cc2)C(C)C)cc1 [TNF-31-2] (5FAM-[dK][dV]L[X1][dA][dA]F[X1][dL][dK]L[X1][dF][dK]L[X1][dW][dR]V[X1][dS][dS]F[X1][dH][dE]L[X1][dF][dK]F[X1][dT][dE]L-{NHCH2C6H4(4-CH2CONH2)}) | 23
CC(C)C[C@H](NC(=O)[C@@H](CCCNC(=N)N)NC(=O)CNC(=O)Cc1ccc(CNC(=O)[C@H](CC(C)C)NC(=O)[C@H](NC(=O)[C@@H](CCCCN)NC(=O)c2ccc3c(c2)C(=O)OC32c3ccc(O)cc3Oc3cc(O)ccc32)C(C)C)cc1)C(=O)NCc1ccc(CC(=O)N[C@H](Cc2ccccc2)C(=O)N[C@H](CCC(=O)O)C(=O)N[C@H](C(=O)NCc2ccc(CC(=O)N3CCC[C@@H]3C(=O)N[C@H](CCCNC(=N)N)C(=O)N[C@H](C(=O)NCc3ccc(CC(=O)N[C@H](C)C(=O)N[C@H](CCCCN)C(=O)N[C@@H](Cc4ccccc4)C(=O)NCc4ccc(CC(=O)N[C@H](CCC(=O)O)C(=O)N[C@H](CO)C(=O)N[C@H](C(=O)NCc5ccc(CC(=O)N6CCC[C@@H]6C(=O)N[C@@H](C(=O)NCC(=O)NCc6ccc(CC(=O)N[C@@H](C(=O)N[C@H](Cc7c[nH]cn7)C(=O)N[C@@H](CC(C)C)C(=O)NCc7ccc(CC(=O)N[C@H](Cc8ccc(O)cc8)C(=O)N[C@H](CCCNC(=N)N)C(=O)N[C@@H](Cc8ccccc8)C(=O)NCc8ccc(CC(N)=O)cc8)cc7)[C@H](C)O)cc6)C(C)C)cc5)C(C)C)cc4)cc3)C(C)C)cc2)C(C)C)cc1 [TNF-31-5] (5FAM-[dK][dV]L[X1]G[dR]L[X1][dF][dE]V[X1][dP][dR]V[X1][dA][dK]F[X1][dE][dS]V[X1][dP][dV]G[X1][dT][dH]L[X1][dY][dR]F-{NHCH2C6H4(4-CH2CONH2)}) | 24
CC(C)C[C@H](NC(=O)[C@@H](CCCNC(=N)N)NC(=O)[C@@H](Cc1c[nH]c2ccccc12)NC(=O)Cc1ccc(CNC(=O)[C@@H](NC(=O)[C@@H](CCC(=O)O)NC(=O)[C@@H](Cc2ccccc2)NC(=O)Cc2ccc(CNC(=O)[C@H](C)NC(=O)[C@@H](Cc3c[nH]cn3)NC(=O)[C@@H](Cc3c[nH]c4ccccc34)NC(=O)Cc3ccc(CNC(=O)[C@H](CC(C)C)NC(=O)[C@H](NC(=O)[C@@H](CCCCN)NC(=O)c4ccc5c(c4)C(=O)OC54c5ccc(O)cc5Oc5cc(O)ccc54)C(C)C)cc3)cc2)C(C)C)cc1)C(=O)NCc1ccc(CC(=O)N[C@H](Cc2ccc(O)cc2)C(=O)N[C@H](CCCCN)C(=O)N[C@@H](C)C(=O)NCc2ccc(CC(=O)N[C@H](CC(N)=O)C(=O)N[C@H](CCCNC(=N)N)C(=O)N[C@@H](Cc3ccccc3)C(=O)NCc3ccc(CC(=O)N4CCC[C@@H]4C(=O)N[C@@H](C(=O)NCC(=O)NCc4ccc(CC(=O)N5CCC[C@@H]5C(=O)N[C@H](CCCNC(=N)N)C(=O)N[C@@H](C)C(=O)NCc5ccc(CC(=O)N[C@H](C)C(=O)N[C@H](CCCCN)C(=O)NCC(=O)NCc6ccc(CC(N)=O)cc6)cc5)cc4)C(C)C)cc3)cc2)cc1 [TNF-39-8] (5FAM-[dK][dV]L[X1][dW][dH]A[X1][dF][dE]V[X1][dW][dR]L[X1][dY][dK]A[X1][dN][dR]F[X1][dP][dV]G[X1][dP][dR]A[X1][dA][dK]G-{NHCH2C6H4(4-CH2CONH2)}) | 270
CC(C)C[C@H](NC(=O)[C@@H](CCCNC(=N)N)NC(=O)[C@@H](CCC(=O)O)NC(=O)Cc1ccc(CNC(=O)[C@H](C)NC(=O)[C@@H](CCCCN)NC(=O)[C@@H](Cc2ccc(O)cc2)NC(=O)Cc2ccc(CNC(=O)[C@H](C)NC(=O)[C@@H](CCCNC(=N)N)NC(=O)[C@@H](Cc3ccccc3)NC(=O)Cc3ccc(CNC(=O)[C@H](CC(C)C)NC(=O)[C@H](NC(=O)[C@@H](CCCNC(=N)N)NC(=O)Cc4ccc(CNC(=O)[C@H](CC(C)C)NC(=O)[C@@H](CCCNC(=N)N)NC(=O)[C@@H](CC(C)C)NC(=O)Cc5ccc(CNC(=O)[C@H](CC(C)C)NC(=O)[C@H](NC(=O)[C@@H](CCCCN)NC(=O)c6ccc7c(c6)C(=O)OC76c7ccc(O)cc7Oc7cc(O)ccc76)C(C)C)cc5)cc4)C(C)C)cc3)cc2)cc1)C(=O)NCc1ccc(CC(=O)N2CCC[C@@H]2C(=O)N[C@@H](C(=O)NCC(=O)NCc2ccc(CC(=O)N[C@H](CCCCN)C(=O)N[C@H](Cc3ccccc3)C(=O)N[C@@H](Cc3ccccc3)C(=O)NCc3ccc(CC(=O)N[C@H](Cc4c[nH]cn4)C(=O)N[C@H](CCC(=O)O)C(=O)N[C@H](C(=O)NCc4ccc(CC(N)=O)cc4)C(C)C)cc3)cc2)C(C)C)cc1 [TNF-31-15] (5FAM-[dK][dV]L[X1][dL][dR]L[X1][dR][dV]L[X1][dF][dR]A[X1][dY][dK]A[X1][dE][dR]L[X1][dP][dV]G[X1][dK][dF]F[X1][dH][dE]V-{NHCH2C6H4(4-CH2CONH2)}) | 23
CC(C)C[C@H](NC(=O)[C@@H](CCCNC(=N)N)NC(=O)[C@@H](CC(C)C)NC(=O)Cc1ccc(CNC(=O)[C@H](CC(C)C)NC(=O)[C@@H](CC(C)C)NC(=O)[C@@H](Cc2ccc(O)cc2)NC(=O)c2ccc3c(c2)C(=O)OC32c3ccc(O)cc3Oc3cc(O)ccc32)cc1)C(=O)NCc1ccc(CC(=O)N[C@H](Cc2ccccc2)C(=O)N[C@H](CCC(=O)O)C(=O)N[C@H](C(=O)NCc2ccc(CC(=O)N3CCC[C@@H]3C(=O)N[C@H](CCCNC(=N)N)C(=O)N[C@H](C(=O)NCc3ccc(CC(=O)N[C@H](Cc4c[nH]c5ccccc45)C(=O)N[C@H](CCCNC(=N)N)C(=O)N[C@H](C(=O)NCc4ccc(CC(=O)N[C@H](CCCNC(=N)N)C(=O)N[C@H](Cc5ccc(O)cc5)C(=O)N[C@@H](CC(C)C)C(=O)NCc5ccc(CC(=O)N[C@H](CCC(=O)O)C(=O)N[C@@H](C(=O)N[C@H](C(=O)NCc6ccc(CC(=O)N[C@@H](C(=O)N[C@H](Cc7c[nH]cn7)C(=O)N[C@@H](CC(C)C)C(=O)NCc7ccc(CC(=O)N[C@H](Cc8ccc(O)cc8)C(=O)N[C@H](CCCNC(=N)N)C(=O)N[C@@H](Cc8ccccc8)C(=O)NCc8ccc(CC(N)=O)cc8)cc7)[C@H](C)O)cc6)C(C)C)C(C)C)cc5)cc4)C(C)C)cc3)C(C)C)cc2)C(C)C)cc1 [TNF-39-6] (5FAM-[dY][dL]L[X1][dL][dR]L[X1][dF][dE]V[X1][dP][dR]V[X1][dW][dR]V[X1][dR][dY]L[X1][dE][dV]V[X1][dT][dH]L[X1][dY][dR]F-{NHCH2C6H4(4-CH2CONH2)}) | 93
